Values of other authors, collected in patent US20040047835A1, “Combinatorial drug therapy using polymer drug conjugates” (priority 2002, published 2004).
Like-named read-outs stand apart in the source and are kept apart here.

Key:
[1] = system: tumor-bearing hosts; settings: compared with free (unconjugated) paclitaxel
[2] = system: ovarian Oca-1 carcinoma; settings: equivalent paclitaxel dose of 60 mg/kg 24 h after tumor irradiation; versus radiation and paclitaxel
[3] = system: cell cycle
[4] = system: mammary MCa-4 tumor; settings: mammary MCa-4 tumor model; radiation preceded drug injection

Compound | anti-tumor activity / efficacy [1] | anti-tumor activity / efficacy ([1]; listed as PGTXL) | tumor growth delay, combined with radiation [2] | effect on cell cycle [3] | interaction of combined radiation and drug [4]
poly(L-glutamic acid)-paclitaxel [PG-TXL] | increased efficacy | superior anti-tumor activity | significantly greater tumor growth delay | induced a G2/M arrest | synergistic interaction
CC(=O)O[C@H]1C(=O)[C@@]2(C)[C@H]([C@H](OC(=O)c3ccccc3)[C@]3(O)C[C@H](OC(=O)[C@H](O)[C@@H](NC(=O)c4ccccc4)c4ccccc4)C(C)=C1C3(C)C)[C@]1(OC(C)=O)CO[C@@H]1C[C@@H]2O [paclitaxel, reference compound] |  |  |  | induced a G2/M arrest | additive or sub-additive interaction
